Experiments:
[1] = molecular target: T1, Voltage-gated inwardly rectifying potassium channel KCNH2 (Homo sapiens, UniProt Q12809)
[2] = molecular target: T2, ATP-sensitive inward rectifier potassium channel 1 (Homo sapiens, UniProt P48048); experiment: Inhibition of human ROMK expressed in CHO cells by electrophysiology method; type: cell-based
T2 sequence (P48048 whole entry): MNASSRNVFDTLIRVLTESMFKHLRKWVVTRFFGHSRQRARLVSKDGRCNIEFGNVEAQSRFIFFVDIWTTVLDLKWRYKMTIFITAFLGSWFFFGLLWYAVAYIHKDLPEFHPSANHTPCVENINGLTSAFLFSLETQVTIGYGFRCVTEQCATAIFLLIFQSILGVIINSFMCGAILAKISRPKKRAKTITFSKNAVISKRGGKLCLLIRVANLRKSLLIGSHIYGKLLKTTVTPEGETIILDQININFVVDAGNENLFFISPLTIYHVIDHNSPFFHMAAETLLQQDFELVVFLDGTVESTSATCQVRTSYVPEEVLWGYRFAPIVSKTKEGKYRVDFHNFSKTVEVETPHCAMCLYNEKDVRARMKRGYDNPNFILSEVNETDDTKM

[3] = tested on: Rattus norvegicus; experiment: Antihypertensive activity in rat spontaneous hypertensive model assessed as change in systolic blood pressure at 3 mg/kg, po measured after 3 days; type: functional
[4] = Drug uptake in plasma of rat spontaneous hypertensive model at 3 mg/kg, po measured after 3 days; type: ADME, organism-based; conditions: spontaneously hypertensive rat
[5] = molecular target: T3, ATP-sensitive inward rectifier potassium channel 1 (Rattus norvegicus, UniProt P35560); experiment: Inhibition of rat ROMK expressed in HEK293 cells after 30 mins by thallium flux assay; type: cell-based
T3 sequence (P35560 whole entry): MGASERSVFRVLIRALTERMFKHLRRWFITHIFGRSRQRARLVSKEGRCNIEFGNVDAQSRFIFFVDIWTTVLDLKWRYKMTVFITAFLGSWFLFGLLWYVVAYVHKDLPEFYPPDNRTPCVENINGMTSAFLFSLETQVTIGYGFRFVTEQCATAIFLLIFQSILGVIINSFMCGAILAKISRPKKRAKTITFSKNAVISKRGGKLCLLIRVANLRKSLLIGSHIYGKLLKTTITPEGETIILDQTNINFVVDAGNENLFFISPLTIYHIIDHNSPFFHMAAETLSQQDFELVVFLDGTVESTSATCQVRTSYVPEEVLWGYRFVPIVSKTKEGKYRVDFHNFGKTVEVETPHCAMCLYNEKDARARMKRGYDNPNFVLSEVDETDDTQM

[6] = species on record: Rattus norvegicus; conditions: in vivo, iv, 0.5 mg/kg
[7] = species on record: Rattus norvegicus; conditions: in vivo, po, 1 mg/kg
[8] = in vivo; conditions: rat, iv, 0.5 mg/kg
[9] = in vivo; conditions: rat
[10] = in vivo; conditions: rat, po, 1 mg/kg
[11] = molecular target: T2, ATP-sensitive inward rectifier potassium channel 1; experiment: Inhibition of human ROMK expressed in HEK293 cells after 30 mins by thallium flux assay; type: cell-based
[12] = tested on: Rattus norvegicus; experiment: Antihypertensive activity in rat spontaneous hypertensive model assessed as change in systolic blood pressure at 25 mg/kg, po measured after 3 days; type: functional
[13] = species on record: Homo sapiens; experiment: Selectivity ratio of IC50 for human ERG expressed in HEK293 cells to IC50 for human ROMK expressed in HEK293 cells; type: cell-based
[14] = molecular target: T1, Voltage-gated inwardly rectifying potassium channel KCNH2; experiment: Inhibition of human ERG by electrophysiology method
[15] = species on record: Homo sapiens; experiment: Selectivity ratio of IC50 for human ERG to IC50 for human ROMK expressed in CHO cells by electrophysiology method; type: cell-based
[16] = AUC (0 to t) in dog at 1 mg/kg, po; type: ADME, organism-based, Canis lupus familiaris; conditions: in vivo
[17] = Half life in dog at 1 mg/kg, po or 0.5 mg/kg, iv; type: ADME, organism-based, Canis lupus familiaris; conditions: in vivo
[18] = Clearance in dog at 1 mg/kg, po or 0.5 mg/kg, iv; type: ADME, organism-based, Canis lupus familiaris; conditions: in vivo
[19] = Volume of distribution at steady state in dog at 1 mg/kg, po or 0.5 mg/kg, iv; type: ADME, organism-based, Canis lupus familiaris; conditions: in vivo, read-out: Vdss
[20] = Oral bioavailability in dog at 1 mg/kg; type: ADME, organism-based, Canis lupus familiaris; conditions: in vivo
[21] = tested on: Rhesus monkey; experiment: AUC (0 to t) in rhesus monkey at 0.5 mg/kg, iv; type: ADME, organism-based, Macaca mulatta; conditions: in vivo
[22] = Half life in rhesus monkey at 0.5 mg/kg, iv; type: ADME, organism-based, Macaca mulatta; conditions: in vivo
[23] = Volume of distribution at steady state in rhesus monkey at 0.5 mg/kg, iv; type: ADME, organism-based, Macaca mulatta; conditions: in vivo, read-out: Vdss
[24] = Drug excretion in urine of rat spontaneous hypertensive model at 3 mg/kg, po measured after 4 hrs; type: ADME, organism-based; conditions: spontaneously hypertensive rat, read-out: Drug excretion
[25] = Drug excretion in urine of rat spontaneous hypertensive model at 3 mg/kg, po measured after 24 hrs; type: ADME, organism-based; conditions: spontaneously hypertensive rat, read-out: Drug excretion
[26] = in vivo; conditions: rat, po, 1 mg/kg; remark: listed apart in the source
[27] = tested on: Canis familiaris; experiment: AUC (0 to t) in dog at 0.5 mg/kg, iv; type: ADME, organism-based, Canis lupus familiaris; conditions: in vivo
[28] = Half life in dog at 0.5 mg/kg, iv; type: ADME, organism-based, Canis lupus familiaris; conditions: in vivo
[29] = Volume of distribution at steady state in dog at 0.5 mg/kg, iv; type: ADME, organism-based, Canis lupus familiaris; conditions: in vivo, read-out: Vdss

T1 sequence (Q12809 whole entry): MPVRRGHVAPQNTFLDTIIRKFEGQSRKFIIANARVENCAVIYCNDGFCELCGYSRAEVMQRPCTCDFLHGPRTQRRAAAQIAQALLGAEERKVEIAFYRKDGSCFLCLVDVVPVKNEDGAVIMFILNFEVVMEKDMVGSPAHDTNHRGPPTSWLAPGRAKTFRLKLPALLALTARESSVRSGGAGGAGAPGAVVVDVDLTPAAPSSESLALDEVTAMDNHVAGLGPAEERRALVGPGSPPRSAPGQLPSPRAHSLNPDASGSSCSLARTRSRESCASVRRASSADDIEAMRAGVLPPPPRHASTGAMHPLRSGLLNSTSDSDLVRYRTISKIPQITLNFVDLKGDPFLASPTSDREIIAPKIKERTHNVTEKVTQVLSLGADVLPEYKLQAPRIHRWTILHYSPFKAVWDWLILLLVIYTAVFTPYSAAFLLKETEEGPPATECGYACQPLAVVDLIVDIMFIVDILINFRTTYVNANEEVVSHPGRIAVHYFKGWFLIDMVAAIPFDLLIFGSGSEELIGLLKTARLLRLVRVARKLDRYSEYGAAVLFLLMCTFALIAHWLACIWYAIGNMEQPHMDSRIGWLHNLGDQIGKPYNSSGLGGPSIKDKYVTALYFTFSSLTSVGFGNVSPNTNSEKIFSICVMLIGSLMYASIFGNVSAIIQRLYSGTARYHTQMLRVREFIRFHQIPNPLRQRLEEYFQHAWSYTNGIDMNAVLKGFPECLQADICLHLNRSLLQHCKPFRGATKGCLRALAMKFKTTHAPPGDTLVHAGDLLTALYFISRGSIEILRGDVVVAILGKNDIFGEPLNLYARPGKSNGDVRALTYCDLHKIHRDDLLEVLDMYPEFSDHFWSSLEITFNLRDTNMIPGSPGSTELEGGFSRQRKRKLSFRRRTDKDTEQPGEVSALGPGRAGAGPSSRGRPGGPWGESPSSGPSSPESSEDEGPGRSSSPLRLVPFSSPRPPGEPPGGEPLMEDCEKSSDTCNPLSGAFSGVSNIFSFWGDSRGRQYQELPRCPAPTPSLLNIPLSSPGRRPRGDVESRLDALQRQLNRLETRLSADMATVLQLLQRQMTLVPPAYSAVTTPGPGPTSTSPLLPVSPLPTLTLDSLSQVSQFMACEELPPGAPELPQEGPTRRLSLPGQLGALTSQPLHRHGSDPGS

Cc1c([C@@H](O)CN2CCC3(CC2)CC(=O)N(c2ccc(S(C)(=O)=O)nc2)C3)ccc2c1COC2=O
IC50 [1]: > 60000 nM

Cc1c([C@@H](O)CN2CCC3(CC2)CC(=O)N(c2cnc(S(C)(=O)=O)cn2)C3)ccc2c1COC2=O
IC50 [2]: 34 nM | Activity [3]: -16 mmHg | concentration at 72 h [4]: 232 nM | IC50 [5]: 60 nM | clearance [6]: 30 mL/min/kg | AUC/dose [7]: 0.5 µM·kg·h/mg | Vd [8]: 3.8 L/kg | half-life [9]: 2.4 h | bioavailability [10]: 46%

CSc1ccc(N2CCC3(CCN(C[C@H](O)c4ccc5c(c4C)COC5=O)CC3)C2)cn1
IC50 ([11]; read-out: IC50): 901 nM

Cc1c([C@@H](O)CN2CCC3(CC2)CCN(c2ccc(C(C)(C)O)nc2)C3)ccc2c1COC2=O
IC50 ([11]; hek293): Not Active | IC50 [1]: 29000 nM

NS(=O)(=O)c1cc2c(cc1Cl)NCNS2(=O)=O [HYDROCHLOROTHIAZIDE]
Activity [12]: -10.5 mmHg

Cc1c([C@@H](O)CN2CCC3(CC2)CCN(c2cnc(S(C)(=O)=O)cn2)C3)ccc2c1COC2=O
Ratio IC50 [13]: 202 | IC50 [2]: 37 nM | IC50 [14]: 22700 nM | Ratio IC50 [15]: 614 | Activity [3]: -19.9 mmHg | concentration at 72 h [4]: 78 nM | IC50 [5]: 40 nM | AUC(0-t) [16]: 0.75 µM·h | half-life [17]: 8.6 h | clearance [18]: 42 mL/min/kg | Vd [19]: 17.8 L/kg | bioavailability [20]: 67% | AUCt [21]: 0.61 µM·h | half-life [22]: 1.8 h | Vd [23]: 7 L/kg | IC50 [1]: 8900 nM | clearance [6]: 37 mL/min/kg | AUC/dose [7]: 0.4 µM·kg·h/mg | Vd [8]: 5.6 L/kg | half-life [9]: 2.1 h | bioavailability [10]: 37%

Cc1c([C@@H](O)CN2CCC3(CC2)CCN(c2ccc(C#N)nc2)C3)ccc2c1COC2=O
Ratio IC50 [13]: 13 | IC50 [1]: 1200 nM

Cc1c([C@@H](O)CN2CCC3(CC2)CC(=O)N(c2ccc(C#N)cn2)C3)ccc2c1COC2=O
IC50 ([11]; read-out: IC50): 10 nM | Ratio IC50 [13]: 180 | IC50 [1]: 1800 nM

Cc1c([C@@H](O)CN2CCC3(CC2)CCN(c2ccc(S(C)(=O)=O)nc2)C3)ccc2c1COC2=O
IC50 ([11]; read-out: IC50): 226 nM | IC50 [2]: 50 nM | Activity [3]: 0.1 mmHg | concentration at 72 h [4]: 390 nM | concentration at 4 h [24]: 26600 nM | concentration at 24 h [25]: 21200 nM | IC50 [5]: 240 nM | clearance [6]: 23 mL/min/kg | AUC/dose [7]: 0.7 µM·kg·h/mg | Vd [8]: 2.8 L/kg | half-life [9]: 2 h | bioavailability [10]: 96%

Cc1c([C@@H](O)CN2CCC3(CC2)CCN(c2cncc(C#N)c2)C3)ccc2c1COC2=O
IC50 ([11]; read-out: IC50): 10 nM

Cc1c([C@@H](O)CN2CCC3(CC2)CCN(c2ccc(C#N)cn2)C3)ccc2c1COC2=O
clearance [6]: 19.3 mL/min/kg | AUC/dose [7]: 2 µM·kg·h/mg | Vd [8]: 4.7 L/kg | half-life [9]: 3 h | bioavailability [10]: 100% | fraction unbound [26]: 0.27

Cc1c([C@@H](O)CN2CCC3(CC2)CCN(c2ccc(S(C)(=O)=O)cn2)C3)ccc2c1COC2=O
IC50 [2]: 29 nM | Activity [3]: -20.3 mmHg | concentration at 72 h [4]: 162 nM | IC50 [5]: 60 nM | AUCt [27]: 0.66 µM·h | half-life [28]: 1.7 h | Vd [29]: 6.9 L/kg | clearance [6]: 24 mL/min/kg | AUC/dose [7]: 0.7 µM·kg·h/mg | Vd [8]: 3.5 L/kg | half-life [9]: 1.8 h | bioavailability [10]: 51%

Cc1nc(N2CCC3(CCN(C[C@H](O)c4ccc5c(c4C)COC5=O)CC3)C2)ccc1S(C)(=O)=O
Ratio IC50 [13]: 101 | IC50 [1]: 7900 nM

COc1ccc(N2CCC3(CCN(C[C@H](O)c4ccc5c(c4C)COC5=O)CC3)C2)cn1
IC50 ([11]; read-out: IC50): 1000 nM | Ratio IC50 [13]: 303 | IC50 [1]: 3300 nM

Cc1c([C@@H](O)CN2CCC3(CC2)CCN(c2ccc([S+](C)[O-])nc2)C3)ccc2c1COC2=O (some centres undefined)
IC50 ([11]; read-out: IC50): 6400 nM

Cc1c([C@@H](O)CN2CCC3(CC2)CC(=O)N(c2cncc(C#N)c2)C3)ccc2c1COC2=O
IC50 ([11]; read-out: IC50): 10 nM | Ratio IC50 [13]: 180 | IC50 [1]: 1800 nM

Cc1c([C@@H](O)CN2CCC3(CC2)CC(=O)N(c2ccc(S(C)(=O)=O)cn2)C3)ccc2c1COC2=O
Ratio IC50 [13]: 328 | IC50 [2]: 43 nM | IC50 [14]: 24000 nM | Ratio IC50 [15]: 558 | Activity [3]: -15.5 mmHg | concentration at 72 h [4]: 220 nM | IC50 [5]: 40 nM | IC50 [1]: 17400 nM | clearance [6]: 34 mL/min/kg | AUC/dose [7]: 0.5 µM·kg·h/mg | Vd [8]: 4.3 L/kg | half-life [9]: 2.1 h | bioavailability [10]: 48%

Cc1c([C@@H](O)CN2CCC3(CC2)CCN(c2ccc(C#N)cn2)CC3)ccc2c1COC2=O
IC50 ([11]; read-out: IC50): 47 nM

— ChEMBL document CHEMBL4002630, “The design and synthesis of novel spirocyclic heterocyclic sulfone ROMK inhibitors as diuretics” (Bioorg Med Chem Lett, 2017)
